Measured values reported in PubChem BioAssay AID2060888 (Molecular Pharmacology Branch, DTP, NCI, 2025).

Tested on: 695427-040-R-J1-PDC complex spheroid viability
Experiment: Anticancer human tumor 695427-040-R-J1-PDC patient-derived colon adenocarcinoma cell line growth inhibition [RAS]
Details: for IC50: curve of first compound; for viability, T/C: stronger effect = lower value
In short: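 Agents were tested in combination matrices in half-log decrements from a top concentration at or near clinical Cmax (10 microM if undetermined). Targets were multi-cell spheroids of tumour lines plus HUVEC and MSC stromal cells.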

[1] = second compound 0.000949 µM, first compound 0.0316 µM
[2] = second compound 0.000949 µM, first compound 0.1 µM
[3] = second compound 0.000949 µM, first compound 0.316 µM
[4] = second compound 0.000949 µM, first compound 1 µM
[5] = second compound 0.003 µM, first compound 0.0316 µM
[6] = second compound 0.003 µM, first compound 0.1 µM
[7] = second compound 0.003 µM, first compound 0.316 µM
[8] = second compound 0.003 µM, first compound 1 µM
[9] = second compound 0.00949 µM, first compound 0.0316 µM
[10] = second compound 0.00949 µM, first compound 0.1 µM
[11] = second compound 0.00949 µM, first compound 0.316 µM
[12] = second compound 0.00949 µM, first compound 1 µM
[13] = second compound 0.03 µM, first compound 0.0316 µM
[14] = second compound 0.03 µM, first compound 0.1 µM
[15] = second compound 0.03 µM, first compound 0.316 µM
[16] = second compound 0.03 µM, first compound 1 µM
[17] = second compound 0.0949 µM, first compound 0.0316 µM
[18] = second compound 0.0949 µM, first compound 0.1 µM
[19] = second compound 0.0949 µM, first compound 0.316 µM
[20] = second compound 0.0949 µM, first compound 1 µM
[21] = second compound 0.3 µM, first compound 0.0316 µM
[22] = second compound 0.3 µM, first compound 0.1 µM
[23] = second compound 0.3 µM, first compound 0.316 µM
[24] = second compound 0.3 µM, first compound 1 µM
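Note: viability read after seven days of drug exposure.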
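Throughout, for viability, T/C: 100% = DMSO vehicle control viability.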

CC(=O)OC12COC1CC(O)C1(C)C(=O)C(O)C3=C(C)C(OC(=O)C(O)C(NC(=O)OC(C)(C)C)c4ccccc4)CC(O)(C(OC(=O)c4ccccc4)C21)C3(C)C (stereo unspecified) + CCn1c(-c2cccnc2C(C)OC)c2c3cc(ccc31)N1CCOC(CC(NC(=O)C(C(C)C)N(C)C(=O)C3(F)CCN(C(=O)C#CC(C)(C)N(C)C)CC3)C(=O)N3CCCC(N3)C(=O)OCC(C)(C)C2)C1
IC50 (second compound 0.000949 µM): > 10000 nM
IC50 (second compound 0.003 µM): > 10000 nM
IC50 (second compound 0.00949 µM): > 10000 nM
IC50 (second compound 0.03 µM): > 10000 nM
IC50 (second compound 0.0949 µM): > 10000 nM
IC50 (second compound 0.3 µM): > 10000 nM
viability, T/C [1]: 81%
viability, T/C [2]: 73.9%
viability, T/C [3]: 76%
viability, T/C [4]: 61.4%
viability, T/C (second compound 0.000949 µM, first compound 3.16 µM): 65.3%
viability, T/C (second compound 0.000949 µM, first compound 10 µM): 73.5%
viability, T/C [5]: 95.7%
viability, T/C [6]: 77.1%
viability, T/C [7]: 61.1%
viability, T/C [8]: 64.1%
viability, T/C (second compound 0.003 µM, first compound 3.16 µM): 70.8%
viability, T/C (second compound 0.003 µM, first compound 10 µM): 66.9%
viability, T/C [9]: 107%
viability, T/C [10]: 61%
viability, T/C [11]: 67.4%
viability, T/C [12]: 69.3%
viability, T/C (second compound 0.00949 µM, first compound 3.16 µM): 78.5%
viability, T/C (second compound 0.00949 µM, first compound 10 µM): 69%
viability, T/C [13]: 83.6%
viability, T/C [14]: 71.9%
viability, T/C [15]: 61%
viability, T/C [16]: 68.4%
viability, T/C (second compound 0.03 µM, first compound 3.16 µM): 78.8%
viability, T/C (second compound 0.03 µM, first compound 10 µM): 77%
viability, T/C [17]: 77.7%
viability, T/C [18]: 51.4%
viability, T/C [19]: 67.1%
viability, T/C [20]: 57.4%
viability, T/C (second compound 0.0949 µM, first compound 3.16 µM): 76%
viability, T/C (second compound 0.0949 µM, first compound 10 µM): 82.4%
viability, T/C [21]: 76.8%
viability, T/C [22]: 60.1%
viability, T/C [23]: 68.1%
viability, T/C [24]: 51.7%
viability, T/C (second compound 0.3 µM, first compound 3.16 µM): 43.9%
viability, T/C (second compound 0.3 µM, first compound 10 µM): 71.1%

CCc1c2c(nc3ccc(O)cc13)-c1cc3c(c(=O)n1C2)COC(=O)[C@]3(O)CC + CCn1c(-c2cccnc2C(C)OC)c2c3cc(ccc31)N1CCOC(CC(NC(=O)C(C(C)C)N(C)C(=O)C3(F)CCN(C(=O)C#CC(C)(C)N(C)C)CC3)C(=O)N3CCCC(N3)C(=O)OCC(C)(C)C2)C1
IC50 (second compound 0.000949 µM): 113 nM
IC50 (second compound 0.003 µM): 131 nM
IC50 (second compound 0.00949 µM): 49.3 nM
IC50 (second compound 0.03 µM): 69.2 nM
IC50 (second compound 0.0949 µM): 79.1 nM
IC50 (second compound 0.3 µM): 95.2 nM
viability, T/C (second compound 0.000949 µM, first compound 0.000949 µM): 97.1%
viability, T/C (second compound 0.000949 µM, first compound 0.003 µM): 93.3%
viability, T/C (second compound 0.000949 µM, first compound 0.00949 µM): 84.2%
viability, T/C (second compound 0.000949 µM, first compound 0.03 µM): 61.5%
viability, T/C (second compound 0.000949 µM, first compound 0.0949 µM): 56.7%
viability, T/C (second compound 0.000949 µM, first compound 0.3 µM): 37.7%
viability, T/C (second compound 0.003 µM, first compound 0.000949 µM): 91.7%
viability, T/C (second compound 0.003 µM, first compound 0.003 µM): 84.6%
viability, T/C (second compound 0.003 µM, first compound 0.00949 µM): 66.1%
viability, T/C (second compound 0.003 µM, first compound 0.03 µM): 64.1%
viability, T/C (second compound 0.003 µM, first compound 0.0949 µM): 53%
viability, T/C (second compound 0.003 µM, first compound 0.3 µM): 43.1%
viability, T/C (second compound 0.00949 µM, first compound 0.000949 µM): 98.3%
viability, T/C (second compound 0.00949 µM, first compound 0.003 µM): 76.8%
viability, T/C (second compound 0.00949 µM, first compound 0.00949 µM): 65.8%
viability, T/C (second compound 0.00949 µM, first compound 0.03 µM): 63.4%
viability, T/C (second compound 0.00949 µM, first compound 0.0949 µM): 36.5%
viability, T/C (second compound 0.00949 µM, first compound 0.3 µM): 35.8%
viability, T/C (second compound 0.03 µM, first compound 0.000949 µM): 79.8%
viability, T/C (second compound 0.03 µM, first compound 0.003 µM): 96.4%
viability, T/C (second compound 0.03 µM, first compound 0.00949 µM): 80.1%
viability, T/C (second compound 0.03 µM, first compound 0.03 µM): 71.6%
viability, T/C (second compound 0.03 µM, first compound 0.0949 µM): 41.7%
viability, T/C (second compound 0.03 µM, first compound 0.3 µM): 31.5%
viability, T/C (second compound 0.0949 µM, first compound 0.000949 µM): 87.3%
viability, T/C (second compound 0.0949 µM, first compound 0.003 µM): 79.5%
viability, T/C (second compound 0.0949 µM, first compound 0.00949 µM): 81.6%
viability, T/C (second compound 0.0949 µM, first compound 0.03 µM): 49.7%
viability, T/C (second compound 0.0949 µM, first compound 0.0949 µM): 57%
viability, T/C (second compound 0.0949 µM, first compound 0.3 µM): 24.2%
viability, T/C (second compound 0.3 µM, first compound 0.000949 µM): 82.7%
viability, T/C (second compound 0.3 µM, first compound 0.003 µM): 101%
viability, T/C (second compound 0.3 µM, first compound 0.00949 µM): 69.7%
viability, T/C (second compound 0.3 µM, first compound 0.03 µM): 58.8%
viability, T/C (second compound 0.3 µM, first compound 0.0949 µM): 57%
viability, T/C (second compound 0.3 µM, first compound 0.3 µM): 31.2%

Nc1ccn(C2OC(CO)C(O)C2(F)F)c(=O)n1 (stereo unspecified) + CCn1c(-c2cccnc2C(C)OC)c2c3cc(ccc31)N1CCOC(CC(NC(=O)C(C(C)C)N(C)C(=O)C3(F)CCN(C(=O)C#CC(C)(C)N(C)C)CC3)C(=O)N3CCCC(N3)C(=O)OCC(C)(C)C2)C1
IC50 (second compound 0.000949 µM): > 1000 nM
IC50 (second compound 0.003 µM): > 1000 nM
IC50 (second compound 0.00949 µM): > 1000 nM
IC50 (second compound 0.03 µM): > 1000 nM
IC50 (second compound 0.0949 µM): > 1000 nM
IC50 (second compound 0.3 µM): > 1000 nM
viability, T/C (second compound 0.000949 µM, first compound 0.00316 µM): 92.7%
viability, T/C (second compound 0.000949 µM, first compound 0.01 µM): 106%
viability, T/C [1]: 98.3%
viability, T/C [2]: 82%
viability, T/C [3]: 77.3%
viability, T/C [4]: 67.5%
viability, T/C (second compound 0.003 µM, first compound 0.00316 µM): 79.4%
viability, T/C (second compound 0.003 µM, first compound 0.01 µM): 98%
viability, T/C [5]: 87.3%
viability, T/C [6]: 71%
viability, T/C [7]: 83.5%
viability, T/C [8]: 58.6%
viability, T/C (second compound 0.00949 µM, first compound 0.00316 µM): 98.3%
viability, T/C (second compound 0.00949 µM, first compound 0.01 µM): 74.3%
viability, T/C [9]: 87.2%
viability, T/C [10]: 64.8%
viability, T/C [11]: 82.7%
viability, T/C [12]: 63.5%
viability, T/C (second compound 0.03 µM, first compound 0.00316 µM): 83%
viability, T/C (second compound 0.03 µM, first compound 0.01 µM): 99%
viability, T/C [13]: 83.5%
viability, T/C [14]: 75.9%
viability, T/C [15]: 83.1%
viability, T/C [16]: 74.2%
viability, T/C (second compound 0.0949 µM, first compound 0.00316 µM): 80%
viability, T/C (second compound 0.0949 µM, first compound 0.01 µM): 94.6%
viability, T/C [17]: 99.6%
viability, T/C [18]: 73.5%
viability, T/C [19]: 77.8%
viability, T/C [20]: 62.2%
viability, T/C (second compound 0.3 µM, first compound 0.00316 µM): 63.5%
viability, T/C (second compound 0.3 µM, first compound 0.01 µM): 97.8%
viability, T/C [21]: 80.8%
viability, T/C [22]: 79.3%
viability, T/C [23]: 78.7%
viability, T/C [24]: 65.7%
